Where two headings read alike, the source gives them in different places.
How the values were obtained:
[1] = target: T1, GPR139 (Homo sapiens, UniProt Q6DWJ6); experiment: GPR139 Agonist titration / agonist counterscreen assay (calcium detection, HEK-GPR139 cells); format: cell-based; parameters: expressed in transfected cells; host or cells: HEK Aequorin cells, Maxcyte transient transfection; details: GPR139 Agonist Activity; for EC50: read-out: EC50; for Averaged Max % Response (±St. Dev.): activity relative to known control
T1 sequence (Q6DWJ6 1-353): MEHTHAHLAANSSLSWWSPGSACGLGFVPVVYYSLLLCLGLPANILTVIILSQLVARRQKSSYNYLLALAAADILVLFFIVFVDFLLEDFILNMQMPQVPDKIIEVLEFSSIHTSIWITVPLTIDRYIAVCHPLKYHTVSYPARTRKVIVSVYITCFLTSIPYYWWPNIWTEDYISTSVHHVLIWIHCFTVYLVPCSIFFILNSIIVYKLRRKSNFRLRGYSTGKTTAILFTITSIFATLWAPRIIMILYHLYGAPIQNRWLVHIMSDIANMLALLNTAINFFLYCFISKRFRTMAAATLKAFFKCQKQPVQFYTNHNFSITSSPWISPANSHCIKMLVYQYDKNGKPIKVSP
Experimental: GPR activity was assessed using a calcium detection assay. […] Negative control samples were treated with DMSO. […] Intracellular calcium was measured using Calcium 5.

[2] = system: parental HEK cells; experiment: HEK parental Agonist Counterscreen Assay (non-transfected cells); format: cell-based; details: for Averaged Max % Response (±St. Dev.): activity relative to known control
Description: The high control for the agonist counterscreen was Forskolin not acetylcholine.

[3] = HEK Agonist Activity section of Table 4 (parental HEK counterscreen)
[4] = values printed in E-notation without unit
[5] = Homo sapiens, HEK293, HEK Agonist Activity section of Table 4 (parental HEK counterscreen)
[6] = Homo sapiens, HEK293, HEK Agonist Activity, parental non-transfected HEK cells

Structure (SMILES)	Efficiency Ligand [1]	Hill Slope [1]	Lipophilic Efficiency (logD) [1]	Lipophilic Efficiency (logP) [1]	Averaged Max % Response (±St. Dev.) [1] [%]	Lipophilic Efficiency (logD) ([2]; HEK Agonist Activity section)	Lipophilic Efficiency (logP) ([2]; HEK Agonist Activity section)	Averaged Max % Response (±St. Dev.) ([2]; HEK Agonist Activity section) [%]	Lipophilic Efficiency (logD) ([1]; based on logD)	Lipophilic Efficiency (logP) ([1]; based on logP)	Hill Slope ([1]; fitted dose-response curve)	Efficiency Ligand ([1]; ligand efficiency)	EC50 [1, 4] [nM]	EC50 [2, 5] [nM]	Lipophilic Efficiency (logD) ([2]; HEK Agonist Activity)	Lipophilic Efficiency (logP) ([2]; HEK Agonist Activity)	Averaged Max % Response (±St. Dev.) ([2]; HEK Agonist Activity) [%]	EC50 [2, 6] [nM]	also measured
COC(=O)c1ccc(CSc2nnc(N)s2)cc1 [SR-01000031964]	0.51	1.27	4.00	4.00	89.11 ± 2.96	2.26	2.26	13.73 ± 5.82											EC50 ([1]; HEK-GPR139 cells): 290 nM; EC50 [2, 3]: > 16000 nM
COc1ccc(CCNC(=O)CC(=O)NCCc2ccc(OC)cc2)cc1 [SR-01000034566]					100.73 ± 15.83	2.60	2.60	−4.69 ± 7.66	4.65	4.65	0.96	0.36	137						EC50 [2, 3]: > 15200 nM
Nc1ccc(C(=O)OCC(=O)NC2CCCc3ccccc32)cc1[N+](=O)[O-] (centres unmarked) [SR-01000034627]					64.98 ± 9.75	1.47	1.47	2.09 ± 12.58	3.27	3.27	2.03	0.34	245	> 15300					
CC(NC(=O)COC(=O)c1ccccc1C(F)(F)F)c1ccccc1 (centres unmarked) [SR-01000037440]					90.68 ± 18.21				3.59	3.59	0.54	0.42	32.9		0.95	0.95	16.47 ± 8.15	> 14400	
O=C(CN1C(=O)NC2(CCc3ccccc3C2)C1=O)Nc1ccccc1Oc1ccccc1 (centres unmarked) [SR-01000039980]					134.67 ± 13.58				4.01	4.01	0.55	0.34	10.4		0.84	0.84	39.53 ± 8.33	> 15300	
CCn1c(C)nc2cc(C(=O)NNC(=O)Cc3cccc4ccccc34)ccc21 [SR-01000041378]					94.48 ± 15.59				4.29	4.29	0.61	0.35	46.1		1.79	1.79	−2.48 ± 2.57	> 14600	
Cc1ccc(CNC(=O)COC(=O)c2ccc(Br)o2)cc1 [SR-01000042100]					100.32 ± 4.53	2.20	2.20	17.67 ± 3.11	4.12	4.12	0.79	0.45		> 14400					
CCCCC(=O)OCC(=O)NCc1ccc(C)cc1 [SR-01000042109]	0.47	1.40	3.80	3.80	92.84 ± 12.11	2.18	2.18	21.12 ± 3.06						> 15000					EC50 ([1]; HEK-GPR139 cells): 363 nM
O=C(CN1C(=O)NC2(CCc3ccccc3C2)C1=O)Nc1cccc2ccccc12 (centres unmarked) [SR-01000042749]	0.29	0.27	2.77	2.77	74.83 ± 7.16	1.39	1.39	−8.38 ± 6.55						> 14100					EC50 ([1]; HEK-GPR139 cells): 585 nM
CC1CCCCN1C(=O)CN1C(=O)C2(CCc3ccccc3C2)NC1=S (centres unmarked) [SR-01000044433]	0.33	0.97	4.10	4.10	96.03 ± 12.11	2.90	2.90	12.49 ± 3.39						> 14300					EC50 ([1]; HEK-GPR139 cells): 896 nM
CCC1(c2ccc(Cl)cc2)NC(=O)N(CC(=O)N2CC3(C)CC2CC(C)(C)C3)C1=O (centres unmarked) [SR-01000045673]					101.61 ± 5.25	1.24	1.24	4.34 ± 4.74	3.67	3.67	0.62	0.34	54.3	> 14300					
COc1cc(C(C)=O)ccc1OCC(=O)NC(C)CCc1ccccc1 (centres unmarked) [SR-01000048295]					102.89 ± 3.61				4.43	4.43	0.88	0.40	38.3		1.86	1.86	7.53 ± 4.49	> 14300	
Cc1ccc(C2(C)NC(=O)N(CC(=O)NCC(C)C)C2=O)cc1 (centres unmarked) [SR-01000048367]					122.38 ± 5.77				5.64	5.64	0.74	0.45	36.5		3.00	3.00	8.71 ± 14.83	> 16000	
CN(C(=O)CN1C(=O)NC(C)(c2ccc3ccccc3c2)C1=O)C1CCCCC1 (centres unmarked) [SR-01000048373]					118.34 ± 15.06	1.79	1.79	9.79 ± 7.30	3.96	3.96	0.66	0.34	96.7						EC50 [2, 3]: > 14300 nM
CCC1CCCCN1C(=O)CN1C(=O)NC(C)(c2ccc3ccccc3c2)C1=O (centres unmarked) [SR-01000048417]					111.02 ± 13.88				4.73	4.73	0.52	0.38	16.9		1.80	1.80	−4.34 ± 6.43		EC50 ([2]; HEK Agonist Activity, parental non-transfected HEK cells): > 14300 nM
C=C(C)CN(CC)C(=O)CN1C(=O)NC(C)(c2ccc3ccccc3c2)C1=O (centres unmarked) [SR-01000048841]					125.61 ± 14.18				5.59	5.59	0.27	0.41	6.7		2.25	2.25	15.49 ± 13.53	> 14800	
CCCC1(CCC)NC(=O)N(CC(=O)NCc2ccc(Cl)cc2)C1=O [SR-01000050884]	0.36	0.73	3.46	3.46	89.45 ± 3.28	1.88	1.88	5.22 ± 1.83						> 15400					EC50 ([1]; HEK-GPR139 cells): 408 nM
CC(C)C(C)(C#N)NC(=O)CSc1nnc(Cc2cccc3ccccc23)n1N (centres unmarked) [SR-01000052065]					98.20 ± 7.98	2.71	2.62	8.92 ± 9.62	4.63	4.54	0.53	0.33	182						EC50 [2, 3]: > 15200 nM
COc1ccc(Cl)cc1C(=O)NNC(=O)CCc1ccc([N+](=O)[O-])cc1 [SR-01000054340]	0.33	0.74	3.45	3.43	96.13 ± 10.69	2.25	2.23	20.66 ± 8.49						> 14200					

— patent US20250099420A1, “SMALL MOLECULE MODULATORS OF GPR139 COMPLEX” (University of Florida Research Foundation, Incorporated, priority 2022, published 2025)
